According to patent US8124582B2, “Treatment of diabetes” (FibroGen, Inc., priority 2002, dated 2012):

Tests used:
[1] = system: aldolase; assay: Aldolase protein expression in 293A cells (Western blot); format: cell-based, Human; settings: FIG. 1A
Description: The effect of compounds of the present invention on expression of proteins and genes involved in glucose regulation and metabolism as follows. Human 293A cells (adenovirus-transformed fetal kidney epithelium) were plated confluent in 35 mm culture dishes and cultured for 1 day at 37° C., 10% CO2 in DMEM containing 5% FBS and 1% penicillin-streptomycin. The media was changed to Opti-Mem I and incubation was continued for an additional 18 to 24 hours. Vehicle control or compound B was then added to the media and cells were incubated for an additional 24, 48 or 72 hours. Plates were placed on ice, culture supernatant was removed, and lysis buffer-1 (LB-1: 10 mM Tris pH 7.4, 1 mM EDTA, 150 mM sodium chloride, 0.5% IGEPAL) was added. Cell lysates were harvested by scraping, incubated for 15 minutes on ice, and then fractionated by centrifugation at 3000×g for 5 minutes at 4° C. The supernatant, which represented the cytosolic fraction, was collected and cytosolic proteins were separated under reducing conditions using SDS-polyacrylamide gel electrophoresis (SDS-PAGE) with equal amounts of protein loaded per lane.
SDS-PAGE was conducted at 150 V for 2 hours, after which the proteins were transferred to a PVDF membrane at 400 mA for 1.5 hours at 4° C. […]

[2] = system: GluT-1; assay: In vivo GluT-1 gene expression in kidney, dose response (microarray); design: species or system Swiss Webster male mice; settings: mice, low dose (30 mg/ml) or high dose (100 mg/ml), oral gavage once per day for 4 days; FIG. 3A
Description: To investigate the dose response of compounds of the present invention, twelve Swiss Webster male mice (30-32 g) (obtained from Simonsen, Inc., Gilroy Calif.) were treated by oral gavage once per day for 4 days with a 4 ml/kg volume of either 0.5% carboxymethyl cellulose (CMC; Sigma-Aldrich, St. […] Four hours after the final dose, animals were anesthetized, sacrificed, and approximately 150 mg of liver and each kidney were isolated and stored in RNALATER solution (Ambion) at −20° C.
RNA from tissues obtained from the experiments described above was isolated using the following protocol. A 50 mg section of each organ was diced, 875 μl of RLT buffer (RNEASY kit; Qiagen Inc., Valencia Calif.) was added, and the pieces were homogenized for about 20 seconds using a rotor-stator POLYTRON homogenizer (Kinematica, Inc., Cincinnati Ohio). […] The RNA was eluted into 80 μL of water and quantitated with RIBOGREEN reagent (Molecular Probes, Eugene Oreg.). […] The absorbance at 260 and 280 nm was measured to determine RNA purity and concentration.
Alternatively, tissue samples were diced and homogenized in TRIZOL reagent (Invitrogen Life Technologies, Carlsbad Calif.) using a rotor-stator POLYTRON homogenizer (Kinematica). […] The absorbance at 260 and 280 nm was measured to determine RNA purity and concentration. […]

[3] = system: adrenomedullin; assay: In vivo adrenomedullin mRNA expression (microarray); design: species or system Swiss Webster male mice; settings: mice, heart, kidney, and lung
Description: To determine gene induction patterns over time, twenty four Swiss Webster male mice (30-32 g) were obtained from Simonsen, Inc. and treated by oral gavage with a 4 ml/kg volume of either 0.5% carboxymethyl cellulose (CMC; Sigma-Aldrich, St. Louis Mo.) (0 mg/kg/day) or […] compound B (25 mg/ml in 0.5% CMC) (100 mg/kg). At 4, 8, 16, 24, 48, or 72 hours after the final dose, animals were anesthetized with isoflurane. The mice were then sacrificed and tissue samples of kidney, liver, brain, lung, and heart were isolated and stored in RNALATER solution (Ambion) at −80° C.
For measurement of adrenomedullin mRNA expression, samples were prepared and were hybridized and analyzed as described above in Example 4.

In the case of `O=C(O)CNC(=O)c1nc(Cl)c2ccccc2c1O` [compound B, [(1-Chloro4-hydroxy-isoquinoline-3-carbonyl)-amino]-acetic acid], the aldolase expression ([1]; 293A cells treated for 24, 48, and 72 hours, vs vehicle control) is reported as “increased over time”, the β-tubulin expression ([1]; 293A cells, specificity control) is reported as “no increases” and the “expression of the gene encoding GluT-1 in kidney” value [2] is reported as “dose-dependent alteration”. The expression of adrenomedullin ([3]; 100 mg/kg oral gavage, FIG. 10B) was “increased in various tissues” and the “time within which adrenomedullin mRNA levels returned to control levels” value ([3]; time course) was 16 to 24 h.
